The results in this text go back to patent US4309439A, “Substituted-acetic acid ester” (Sumitomo Chemical Company, Limited, priority 1975, dated 1982).

Structures are written as SMILES.

The subject of this data set is green rice leafhoppers (Nephotettix cincticeps). Kind of data set: mortality of green rice leafhoppers on sprayed rice plants (Experimental Example 1). Format: in vivo. Particulars: 30% concentrate / wettable powder diluted 300 times; 10 ml/pot; after one day; 1440 min. On the procedure: An emulsifiable concentrate is prepared by blending 30% of each of the present compounds (1) to (35), 50% of xylene and 20% of Sorpol SM-200 (a registered trade mark of Toho Kagaku Co.).
The emulsifiable concentrates thus formulated were diluted 300 times with water. […] Each test solution thus prepared was individually sprayed on the rice plants in a pot which had elasped 25 days after sowing, in a proportion of 10 ml/pot. Thereafter, each pot was covered with a cylindrical wire net and 15 green rice leafhoppers (Nephotettix cincticeps) were liberated in the pot.

Consider `CNC(=O)Oc1cccc2ccccc12` [Carbaryl, 1-naphthyl-N-methylcarbamate], for which the mortality entry is recorded as “more than 90%”.
